Where “and” joins values, the source holds several entries; their conditions need not be identical. Identical values can stand only once.
How the values were obtained:
[1] = cynomolgus monkey, in vivo
Excerpt: Animals. […] Solvent was used as vehicle for the control group.
The animals used in this analysis were cynomolgus monkeys (Macaca fascicularis), supplied by Centre de Recherches Primatologiques, Port Louis, Mauritius. Two animals were used per group and sex. At the beginning of the treatment period, the animals were at least 24 months old, with a body weight of approximately 3 kg. Animals were kept under standard conditions for animal welfare. Animals were examined daily for mortality, food consumption and clinical observations. Body weight was recorded once per week.

[2] = Blood pressure; assay type: in vivo, cynomolgus monkeys (Macaca fascicularis); conditions: for Blood Pressure Difference: Week 2 vs Week-1; for Blood Pressure Week-1: before dosing
[3] = Haematology; assay type: in vivo, cynomolgus monkeys (Macaca fascicularis)
Excerpt: (§1) Blood sampling. […] Blood samples were taken from a peripheral vein.

[4] = Hormone determinations in serum; assay type: in vivo, cynomolgus monkeys (Macaca fascicularis); conditions: males
Excerpt: as §1

[5] = test system: liver, kidney, pituitary, muscle, bone, duodenum, spleen and trachea; set-up: species or system cynomolgus monkeys (Macaca fascicularis); conditions: cynomolgus monkey, in vivo
Description: Tissue sampling. Animals were killed by deep anaesthesia induced by intravenous injection of Pentothal®, followed by exsanguinations. All relevant tissues were sampled for histopathology and gene expression profiling. The following tissue samples were processed for analysis: liver, kidney, pituitary, muscle, bone, duodenum, spleen and trachea. Samples for histopathology were fixed in phosphate-buffered 10% formalin. Bone demineralization was performed with 10% formic acid. Tissue samples were embedded in Paraplast® and sectioned at 4 microns, for staining with haematoxylin and eosin. Samples for gene expression profiling were quickly frozen in liquid nitrogen immediately after excision, stored on dry ice and subsequently in a deep-freezer at approximately −80° C. until further use. All selected tissues for gene expression profiling were examined histopathologically.

[6] = Urinary analysis
[7] = urine, females, day −8 (pre-dose)

## CC(C)C[C@H](NC(=O)[C@H](CCCCN)NC(=O)CNC(=O)[C@H](CC(C)C)NC(=O)[C@@H](NC(=O)[C@@H]1CSSC[C@H](N)C(=O)N[C@@H](CO)C(=O)N[C@@H](CC(N)=O)C(=O)N[C@@H](CC(C)C)C(=O)N[C@@H](CO)C(=O)N[C@@H]([C@@H](C)O)C(=O)N1)C(C)C)C(=O)N[C@@H](CO)C(=O)N[C@@H](CCC(N)=O)C(=O)N[C@@H](CCC(=O)O)C(=O)N[C@@H](CC(C)C)C(=O)N[C@@H](Cc1c[nH]cn1)C(=O)N[C@@H](CCCCN)C(=O)N[C@@H](CC(C)C)C(=O)N[C@@H](CCC(N)=O)C(=O)N[C@H](C(=O)N[C@@H](Cc1ccc(O)cc1)C(=O)N1CCC[C@H]1C(=O)N[C@@H](CCCNC(=N)N)C(=O)N[C@H](C(=O)N[C@@H](CC(N)=O)C(=O)N[C@H](C(=O)NCC(=O)N[C@@H](CO)C(=O)NCC(=O)N[C@H](C(=O)N1CCC[C@H]1C(N)=O)[C@@H](C)O)[C@@H](C)O)[C@@H](C)O)[C@@H](C)O [Salmon Calcitonin]
[1]
  Food Consumption Avg., Both animals: 72.9
[2]; Female, first line per animal
  Blood Pressure Week 2: 82 mmHg and 44 mmHg
  Blood Pressure Difference: −16 mmHg and −48 mmHg
  Blood Pressure Week-1: 98 mmHg and 92 mmHg
[2]; Female, second line per animal
  Blood Pressure Week 2: 25 mmHg and 30 mmHg
  Blood Pressure Difference: −25 mmHg and 4 mmHg
  Blood Pressure Week-1: 50 mmHg and 26 mmHg
[2]; Male, first line per animal
  Blood Pressure Week 2: 99 mmHg and 79 mmHg
  Blood Pressure Difference: −36 mmHg and −23 mmHg
  Blood Pressure Week-1: 135 mmHg and 102 mmHg
[2]; Male, second line per animal
  Blood Pressure Week 2: 40 mmHg and 35 mmHg
  Blood Pressure Difference: −21 mmHg
  Blood Pressure Week-1: 61 mmHg and 56 mmHg
[3]; females, d 7
  L: 4.61 G/L and 6.21 G/L
  MCH: 18.6 pg and 19.4 pg
  MCV: 64 fL and 68 fL
  PCV: 0.4 l/l and 0.44 l/l
  PLAT: 594 G/L and 356 G/L
  RBC: 6.2 T/l and 6.6 T/l
  WBC: 9.5 G/l and 17 G/l
  monocyte count: 0.63 G/l and 0.82 G/l
[3]; females, d 13
  B: 0.03 G/L and 0.05 G/L
  L: 5.18 G/L and 6.58 G/L
  MCH: 19.5 pg
  MCV: 64 fL and 65 fL
  PCV: 0.33 l/l and 0.37 l/l
  PLAT: 451 G/L and 229 G/L
  RBC: 5.2 T/l and 5.7 T/l
  WBC: 12 G/l and 13.3 G/l
  monocyte count: 0.69 G/l and 0.39 G/l
[3]; females, d −8 (before dosing)
  B: 0.02 G/L and 0.01 G/L
  E: 0.03 G/L
  L: 3.26 G/L and 4.79 G/L
  MCH: 19.1 pg and 19.8 pg
  MCV: 61 fL and 65 fL
  PCV: 0.4 l/l and 0.45 l/l
  PLAT: 549 G/L and 304 G/L
  RBC: 6.5 T/l and 7 T/l
  WBC: 7 G/l and 8.3 G/l
  monocyte count: 0.25 G/l and 0.3 G/l
[3]; males, d 7
  B: 0.04 G/l
  E: 0.10 G/l and 0.09 G/l
  HB: 11.7 g/dL and 11.5 g/dL
  L: 6.79 G/l and 5.57 G/l
  M: 0.73 G/l and 0.45 G/l
  MCH: 19.9 pg and 19.2 pg
  MCHC: 30.3 g/dL and 31.3 g/dL
  MCV: 66 fL and 62 fL
  PCV: 0.39 l/l and 0.37 l/l
  PLAT: 396 G/l and 330 G/l
  RBC: 5.9 T/l and 6.0 T/l
  WBC: 11.8 G/l and 9.5 G/l
[3]; males, d 13
  B: 0.03 G/l
  HB: 11.2 g/dL and 10.3 g/dL
  L: 5.38 G/l and 4.92 G/l
  M: 0.57 G/l and 0.76 G/l
  MCH: 20.2 pg and 19.2 pg
  MCHC: 29.0 g/dL and 28.7 g/dL
  MCV: 70 fL and 67 fL
  PCV: 0.39 l/l and 0.36 l/l
  PLAT: 302 G/l and 389 G/l
  RBC: 5.6 T/l and 5.4 T/l
  WBC: 8.0 G/l and 8.8 G/l
[3]; males, d −6 (before dosing)
  HB: 12.6 g/dL and 13.6 g/dL
  L: 4.00 G/l and 6.55 G/l
  MCH: 20.2 pg and 19.7 pg
  MCHC: 31.4 g/dL and 32.0 g/dL
  MCV: 64 fL and 62 fL
  PCV: 0.40 l/l and 0.43 l/l
  PLAT: 351 G/l and 247 G/l
  RBC: 6.3 T/l and 6.9 T/l
  WBC: 7.7 G/l and 11.5 G/l
[4]; day 7
  ACTH: 87 pg/mL and 78 pg/mL
  ALDOST: 1058 pg/mL and 987 pg/mL
  C-PEPTI: 1.70 ng/mL and 1.20 ng/mL
  CORTISOL: 979 nmol/L and 1523 nmol/L
  CT: 4.0 pg/mL and 2.5 pg/mL
  GASTRIN: 83 pg/mL and 128 pg/mL
  GLUCAG: 247 pg/mL and 218 pg/mL
  INSULIN: 14.0 mU/l and 10.0 mU/l
  IPH: 75 pg/mL and 62 pg/mL
  S.MED: 268 ng/mL and 307 ng/mL
  T3: 2.35 nmol/L and 1.65 nmol/L
  T4: 64 nmol/L and 79 nmol/L
  VD25-H: 50 nmol/L and 44 nmol/L
[4]; day 13
  ACTH: 87 pg/mL and 73 pg/mL
  ALDOST: 819 pg/mL and 977 pg/mL
  C-PEPTI: 1.80 ng/mL and 2.30 ng/mL
  CORTISOL: 1611 nmol/L and 1709 nmol/L
  G.H.: 16.2 ng/mL and 15.7 ng/mL
  GASTRIN: 88 pg/mL and 136 pg/mL
  GLUCAG: 428 pg/mL and 503 pg/mL
  INSULIN: 17.0 mU/l and 22.0 mU/l
  IPH: 78 pg/mL and 71 pg/mL
  PROLACT: 4.6 ng/mL and 6.6 ng/mL
  S.MED: 332 ng/mL and 384 ng/mL
  T3: 2.51 nmol/L and 1.90 nmol/L
  T4: 47 nmol/L and 65 nmol/L
  VD25-H: 49 nmol/L and 45 nmol/L
[4]; day −6 (pre-dose)
  CORTISOL: 2316 nmol/L and 1578 nmol/L
  CT: 6.7 pg/mL and 5.1 pg/mL
  G.H.: 11.5 ng/mL and 14.6 ng/mL
  GLUCAG: 905 pg/mL and 869 pg/mL
  T3: 1.06 nmol/L and 1.48 nmol/L
  T4: 53 nmol/L and 62 nmol/L
  TESTO: 8.5 nmol/L and 9.5 nmol/L
  VD25-H: 63 nmol/L and 62 nmol/L
[4]; day −6 relative to start of dosing (pre-dose)
  ACTH: 98 pg/mL and 115 pg/mL
[5]
  inflammatory and regenerative changes in the kidneys: slightly higher incidence
[6]; males, day 13
  CREAT (urine): 4620 µmol/L and 4400 µmol/L
  Ca2+ (urine): 18.25 mmol/L and 23.40 mmol/L
  Cl− (urine): 55 mmol/L and 68 mmol/L
  I.PHOS (urine): 2.50 mmol/L and 3.00 mmol/L
  K+ (urine): 78 mmol/L and 76 mmol/L
  Mg2+ (urine): 7.05 mmol/L and 9.80 mmol/L
  Na+ (urine): 14 mmol/L and 15 mmol/L
  VOLUME (urine): 68 mL and 54 mL
[6]; males, day −6 (before dosing)
  I.PHOS (urine): 4.35 mmol/L and 5.33 mmol/L
  LDH (urine): 9.0 IU/L and 13.0 IU/L
  NAG (urine): 2.7 IU/l and 4.2 IU/l
  VOLUME (urine): 62 mL and 37 mL
[6]; urine, females, day 13
  CREAT: 4800 µmol/L and 4200 µmol/L
  Ca2+: 17.55 mmol/L and 12.70 mmol/L
  Cl−: 63 mmol/L and 65 mmol/L
  I.PHOS: 5.1 mmol/L and 5.8 mmol/L
  K+: 53 mmol/L and 57 mmol/L
  Mg2+: 5.40 mmol/L and 4.85 mmol/L
  NAG: 2.8 IU/l and 2.7 IU/l
  Na+: 40 mmol/L and 32 mmol/L
[6]; urine, females, day 13 of dosing
  VOLUME: 67 mL and 49 mL
[6]; urine, females, day −7 (pre-dose)
  CREAT: 6920 µmol/L and 13380 µmol/L
[6]; [7]
  CREAT: 10780 µmol/L and 11260 µmol/L
  Ca2+: 3.00 mmol/L and 3.50 mmol/L
  K+: 104 mmol/L and 172 mmol/L
  Mg2+: 3.35 mmol/L and 3.80 mmol/L
  Na+: 98 mmol/L and 156 mmol/L

Source: patent US20070099828A1, “BIOMARKERS FOR THE EFFICACY OF CALCITONIN AND PARATHYROID HORMONE TREATMENT” (priority 2003, published 2007)
